Results from US5994334A, “Androgen synthesis inhibitors” (priority 1997, dated 1999).
Entries after “also recorded” stand apart in the source; their conditions may differ. Where two headings read alike, the source gives them in different places.

What was measured:
[1] = biological target: 17α-hydroxylase/C17,20-lyase; details: read-out: Ki (literature); cited from earlier work
[2] = test system: LNCaP human prostatic cancer cell line; assay: Androgen-dependent growth of LNCaP cells; details: for reversal of DHT-stimulated LNCaP growth (in words) / reversal of DHT-stimulated LNCaP growth at 5 μM (in words): 0.03 nM DHT; for reversal of testosterone-stimulated LNCaP growth at 5 μM (in words) / reversal of testosterone-stimulated LNCaP growth (in words) / stimulation of LNCaP cell proliferation (in words): 0.1 nM testosterone; for reversal of testosterone-stimulated LNCaP growth at 5 μM (in words) / reversal of DHT-stimulated LNCaP growth at 5 μM (in words): inhibitor 5 μM; for reversal of testosterone-stimulated LNCaP growth (in words): inhibitor 0.3-5 μM, 9 days; for IC50: read-out: concentration reducing the stimulatory effect of testosterone by 50%; for stimulation of LNCaP cell proliferation (in words): hydroxyflutamide 0.3-1 μM
Method: The ability of various inhibitors to reverse the stimulatory effect of testosterone on the growth of the LNCaP human prostatic cancer cell line was tested by comparing cell number in wells treated for 9 days with either drug vehicle only (control), 0.1 nM testosterone only, or 0.1 nM testosterone with inhibitor at 0.3, 1, 2.5, or 5 μM.

[3] = test system: human prostatic tissue (BPH or prostate cancer); assay: Prostate tissue in histoculture, DNA synthesis ([3H]-thymidine uptake); details: for inhibition of testosterone-stimulated DNA synthesis (in words), 0.3 μM: inhibitor 0.3 μM; for reversal of testosterone-stimulated DNA synthesis (in words), 1 μM: testosterone 1 μM, FIG. 1
Method: We recently developed a histoculture method to evaluate the growth inhibiting properties of the compounds on human prostatic tissue. […] The tissue samples were then incubated for 3 days in fresh medium/treatment containing 2 μCi/ml [^3 H]-thymidine. Tissue was then digested and DNA extracted. For each sample, [^3 H]-thymidine uptake was normalized to DNA content. […] This finding is consistent with the compound acting as an antiandrogen. None of the compounds produced an independent effect on DNA synthesis in the absence of added androgens.

[4] = biological target: T1, Human Prostatic 5α-Reductase (Homo sapiens, UniProt P31213); assay: Inhibition of human prostatic 5α-reductase (prostatic microsomes, [3H]testosterone); details: for IC50: IC50 5α-reductase; for inhibition at 0.01 µM: read-out: % Inhibition of 5α-reductase, [I] 10 nM; for inhibition at 0.1 µM: read-out: % Inhibition of 5α-reductase, [I] 100 nM
T1 sequence (P31213 1-254): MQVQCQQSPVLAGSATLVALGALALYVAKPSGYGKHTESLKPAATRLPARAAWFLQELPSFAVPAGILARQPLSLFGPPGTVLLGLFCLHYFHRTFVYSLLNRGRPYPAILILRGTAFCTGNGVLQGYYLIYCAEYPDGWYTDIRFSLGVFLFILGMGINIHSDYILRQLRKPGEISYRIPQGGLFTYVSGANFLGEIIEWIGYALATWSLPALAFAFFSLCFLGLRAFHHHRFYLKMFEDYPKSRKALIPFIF
Method: The 5α-reductase assay is performed by incubating human prostatic microsomes (approx. 0.6 mg protein in 0.5 ml phosphate buffer) with [7-^3 H]testosterone (10 mM. 6×10^5 dpm) with a NADPH generating system (NADP 0.65 mM; glucose-6-phosphate 7.1 mM; glucose-6-phosphate dehydrogenase 2.5 IU in 100 μl phosphate buffer) and candidate inhibitors at concentrations of 10 nM and 100 nM under oxygen for 30 min at 37° C. […] The steroids are extracted with ether and separated by chromatography on TLC (chloroform:ether 80:20). […] The steroids are scraped from the plate and radioactivity measured.

[5] = biological target: T2, Human Testicular 17α-Hydroxylase (Homo sapiens, UniProt P05093); assay: Inhibition of human testicular 17α-hydroxylase (pregnenolone substrate, testicular microsomes); assay type: biochemical
T2 construct: incubating human testicular microsomes; from tissue; host or cells: human testis, microsomes
T2 sequence (P05093 1-508): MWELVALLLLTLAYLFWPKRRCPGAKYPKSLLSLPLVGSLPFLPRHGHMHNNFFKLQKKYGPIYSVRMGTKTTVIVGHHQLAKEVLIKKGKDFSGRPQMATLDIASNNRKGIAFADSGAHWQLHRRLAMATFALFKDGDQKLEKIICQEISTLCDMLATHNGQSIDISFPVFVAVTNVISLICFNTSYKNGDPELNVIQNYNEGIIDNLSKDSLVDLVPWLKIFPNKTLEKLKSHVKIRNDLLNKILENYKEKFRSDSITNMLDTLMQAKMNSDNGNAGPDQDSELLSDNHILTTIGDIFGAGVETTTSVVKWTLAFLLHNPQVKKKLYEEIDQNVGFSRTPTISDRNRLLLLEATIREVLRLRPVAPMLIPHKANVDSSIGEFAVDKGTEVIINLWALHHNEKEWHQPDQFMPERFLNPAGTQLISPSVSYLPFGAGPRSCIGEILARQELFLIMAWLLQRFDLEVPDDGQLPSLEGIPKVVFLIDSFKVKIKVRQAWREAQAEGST
Method in brief: (§1)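 Enzyme source: human testicular microsomes; substrate: radiolabeled pregnenolone. Compounds tested at different concentrations, metabolites measured by reverse-phase HPLC; lyase activity scored from DHEA formation, hydroxylase activity from 17α-hydroxypregnenolone plus DHEA formation.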

[6] = biological target: T3, Human Testicular C17,20-lyase (Homo sapiens, UniProt P05093); assay: Inhibition of human testicular C17,20-lyase (pregnenolone substrate, testicular microsomes); assay type: biochemical
T3 construct: incubating human testicular microsomes; from tissue; host or cells: human testis, microsomes
T3 sequence (P05093 1-508): T2 sequence (P05093 1-508)
Method in brief: as §1

[7] = biological target: T4, human 17α-hydroxylase/C17,20-lyase (Homo sapiens, UniProt P05093); assay: Inhibition of human testicular 17α-hydroxylase/C17,20-lyase (enzyme complex as a whole); assay type: biochemical; details: for inhibition of 17α-hydroxylase/C17,20-lyase (in words): NI = no inhibition; for times more potent than ketoconazole: vs ketoconazole
T4 construct: incubating human testicular microsomes; from tissue; host or cells: human testis, microsomes
T4 sequence (P05093 1-508): T2 sequence (P05093 1-508)
Method in brief: as §1

[8] = test system: adrenal 17α-hydroxylase/C17,20-lyase; assay: Inhibition of adrenal 17α-hydroxylase/C17,20-lyase; assay type: biochemical; details: guinea pig adrenal
[9] = biological target: human androgen receptor (AR) (Homo sapiens, UniProt P10275); assay: Androgen receptor-mediated gene transcription, wild-type AR (luciferase, CV1 cells); assay type: cell-based; details: against DHT stimulation
human androgen receptor (AR), sequence (P10275 whole entry): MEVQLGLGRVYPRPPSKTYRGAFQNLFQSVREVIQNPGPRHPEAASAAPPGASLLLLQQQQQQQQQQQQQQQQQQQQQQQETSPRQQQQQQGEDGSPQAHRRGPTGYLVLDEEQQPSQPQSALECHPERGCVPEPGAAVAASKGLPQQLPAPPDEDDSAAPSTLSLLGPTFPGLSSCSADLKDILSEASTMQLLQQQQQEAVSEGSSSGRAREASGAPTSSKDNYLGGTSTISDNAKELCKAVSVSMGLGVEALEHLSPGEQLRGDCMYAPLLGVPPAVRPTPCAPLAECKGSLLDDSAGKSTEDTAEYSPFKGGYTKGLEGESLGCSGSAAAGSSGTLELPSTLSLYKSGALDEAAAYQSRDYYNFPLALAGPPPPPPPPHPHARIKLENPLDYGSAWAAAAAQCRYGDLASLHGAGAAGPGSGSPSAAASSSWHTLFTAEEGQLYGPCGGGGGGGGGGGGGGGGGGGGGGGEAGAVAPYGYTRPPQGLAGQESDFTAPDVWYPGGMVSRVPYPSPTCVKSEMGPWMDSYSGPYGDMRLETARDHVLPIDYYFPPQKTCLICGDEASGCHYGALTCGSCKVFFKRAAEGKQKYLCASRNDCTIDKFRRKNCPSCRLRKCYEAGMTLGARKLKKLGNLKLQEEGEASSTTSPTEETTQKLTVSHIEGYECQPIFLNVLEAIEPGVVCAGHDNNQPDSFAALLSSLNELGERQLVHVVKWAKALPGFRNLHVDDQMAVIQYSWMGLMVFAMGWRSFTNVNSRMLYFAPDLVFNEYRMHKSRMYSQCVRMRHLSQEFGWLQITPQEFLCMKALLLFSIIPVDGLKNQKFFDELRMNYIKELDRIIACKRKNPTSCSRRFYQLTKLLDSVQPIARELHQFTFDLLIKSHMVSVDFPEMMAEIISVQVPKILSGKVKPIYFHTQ

[10] = test system: mutant AR which is expressed in LNCaP cells; assay: Androgen receptor-mediated gene transcription, mutant AR of LNCaP cells (luciferase, CV1 cells); assay type: cell-based, human
[11] = test system: LNCaP human prostatic tumors; assay: Human prostatic cancer (LNCaP) xenograft in male nude mice; assay type: in vivo, human (LNCaP) tumors in BALB/c male athymic mice; details: five weeks; for total tumor volume (% of initial volume), 5 weeks: 4 mice per group, control 884.0%, FIG. 2; for mean tumor weight, 5-week experiment: control 1310.5±1125.9 mg, I-49 p<0.05 vs control
Method: We have reported that inoculation of MCF-7 breast cancer cells in Matrigel increases mammary tumor formation in nude mice (Yue et al., 1994). The same procedure was therefore utilized to develop tumors from human prostatic cancer cells (LNCAP) in male nude mice. BALB/c male athymic mice, 4-6 weeks old, were inoculated sc with LNCaP cells suspended in Matrigel (10 mg/ml). Four sites per mouse were injected with 1.8×10^6 cells in 0.1 ml Matrigel. Treatment began when the tumor reached about 100 mm^3 in volume. Tumors were measured before the treatment began and once a week during treatment. Tumor volume was calculated by the formula 4/3πr1^2 r2 (r1 <r2).At the end of treatment, the mice were sacrificed and individual tumors were weighed. The latency of tumor development was 30-40 days and overall tumorigenicity was 82%.
In a further experiment, two mice were treated with I-16 (1 mg/mouse/day, s.c.) beginning 45 days after cell inoculation. Two mice received vehicle as controls. […] The mean tumor weight was 198.78±72 mg in I-16 treated mice compared to 386.3±147.2 mg in the control group. In other experiments, I-47 and I-49 were effective in controlling tumor growth. The total tumor volume of the control mice increased to 884.0% of the initial volume.

[12] = Table 1, NI = no inhibition, read-out: IC50 17α-OHase
[13] = Table 3, first figure of 17α-hydroxylase/lyase pair, read-out: IC50 17α-hydroxylase
[14] = first figure of pair, read-out: IC50 17α-hydroxylase
[15] = Table 1, NI = no inhibition, CI = complete inhibition, read-out: IC50 C17,20 lyase
[16] = second figure of pair, read-out: IC50 C17,20-lyase

C[C@]12CC[C@H]3[C@@H](CC=C4C[C@@H](O)CC[C@@]43C)[C@@H]1CC[C@@H]2NC1CC1 [17β-(cyclopropylamino)androst-5ene-3-ol]
Ki [1]: 90 nM

CCN(CC)C(=O)[C@H]1CC[C@H]2[C@@H]3CC[C@H]4N(C)C(=O)CC[C@]4(C)[C@H]3CC[C@]12C [Compound 4MA, reference compound]
reversal of DHT-stimulated LNCaP growth (in words) [2]: dose-dependent reversal | reversal of testosterone-stimulated LNCaP growth at 5 μM (in words) [2]: almost completely reversed | reversal of testosterone-stimulated LNCaP growth (in words) [2]: dose-dependent reversal | IC50 ([2]; Homo sapiens, LNCaP, 216 h): ≤ 1000 nM | inhibition of testosterone-stimulated DNA synthesis (in words), 0.3 μM [3]: highly effective | reversal of testosterone-stimulated DNA synthesis (in words), 1 μM ([3]; inhibitor 1 μM): almost complete reversal | IC50 ([4]; Table 2): 10 nM | inhibition at 0.01 µM [4]: 71.9% | inhibition at 0.1 µM [4]: 92%

C[C@H](O)[C@H]1CC[C@H]2[C@@H]3CCC4=CC(=O)CC[C@]4(C)[C@H]3CC[C@]12C [Compound I-33]
IC50 ([5]; IC50 17α-OHase): 2840 nM | IC50 ([6]; IC50 C17,20 lyase): 1430 nM | stimulation of LNCaP cell proliferation (in words) [2]: stimulated cell proliferation | inhibition of testosterone-stimulated DNA synthesis (in words), 0.3 μM [3]: highly effective | reversal of testosterone-stimulated DNA synthesis (in words), 1 μM ([3]; inhibitor 1 μM): almost complete reversal | IC50 [4]: 13 nM | IC50 ([4]; Table 2): 13 nM | inhibition at 0.01 µM [4]: 28.5% | inhibition at 0.1 µM [4]: 87.6%

C[C@@H](O)[C@H]1CC[C@H]2[C@@H]3CCC4=CC(=O)CC[C@]4(C)[C@H]3CC[C@]12C [Compound I-34]
inhibition of 17α-hydroxylase/C17,20-lyase (in words) [7]: potent inhibition | reversal of DHT-stimulated LNCaP growth (in words) [2]: stimulation of growth above the level produced by DHT | stimulation of LNCaP cell proliferation (in words) [2]: stimulated cell proliferation | inhibition of testosterone-stimulated DNA synthesis (in words), 0.3 μM [3]: partially effective | reversal of testosterone-stimulated DNA synthesis (in words), 1 μM ([3]; inhibitor 1 μM): almost complete reversal | IC50 [4]: 90 nM | IC50 ([4]; Table 2): 90 nM | inhibition at 0.01 µM [4]: 16.1% | inhibition at 0.1 µM [4]: 64.5%

C[C@]12CC[C@H]3[C@@H](CC=C4C[C@@H](O)CC[C@@]43C)[C@@H]1CC[C@@H]2c1c[nH]cn1 [Compound I-47, 17β-(4'-imidazolyl)-androst-5-en-3β-ol]
IC50 [5, 12]: 25 nM | IC50 [5, 13]: 25.2 nM | IC50 [5, 14]: 11 nM | IC50 [6, 15]: 23 nM | IC50 ([6]; Table 3, second figure of pair, CI = complete inhibition, read-out: IC50 lyase): 22.6 nM | IC50 [6, 16]: 7 nM | inhibition of 17α-hydroxylase/C17,20-lyase (in words) [7]: potent inhibitors | times more potent than ketoconazole [7]: 10-50 times | effect on adrenal enzyme (in words) [8]: very little effect | antagonism of wild-type AR (in words) [9]: dose-dependent antagonism | agonism/antagonism at mutant AR of LNCaP cells (in words) [10]: antagonist; also recorded: not an agonist of the mutant receptor | reversal of DHT-stimulated LNCaP growth (in words) [2]: dose-dependent reversal | reversal of DHT-stimulated LNCaP growth at 5 μM (in words) [2]: nearly complete reversal | reversal of testosterone-stimulated LNCaP growth at 5 μM (in words) [2]: almost completely reversed | reversal of testosterone-stimulated LNCaP growth (in words) [2]: dose-dependent reversal | IC50 ([2]; Homo sapiens, LNCaP, 216 h): ≤ 1000 nM | reversal of DHT-stimulated DNA synthesis (in words), 1 μM ([3]; inhibitor 1 μM, DHT 10 nM): almost completely reversed | reversal of testosterone-stimulated DNA synthesis (in words), 1 μM ([3]; inhibitor 1 μM): almost complete reversal | total tumor volume (% of initial volume), 5 weeks [11]: 525.8% | mean tumor weight, 5-week experiment [11]: 607.0 ± 142.4 mg

C[C@]12CC[C@H](O)CC1=CC[C@@H]1[C@@H]2CC[C@]2(C)C(c3c[nH]cn3)=CC[C@@H]12 [Compound I-49, 17β-(4'-imidazolyl)-androsta-5,16-dien-3β-ol]
IC50 [5, 12]: 8 nM | IC50 [5, 13]: 8.82 nM | IC50 [5, 14]: 4 nM | IC50 [6, 15]: 9 nM | IC50 [6, 16]: 4 nM | inhibition of 17α-hydroxylase/C17,20-lyase (in words) [7]: potent inhibitors | fold increase of inhibition by 16,17 double bond ([7]; vs I-47): 2 fold | times more potent than ketoconazole [7]: 10-50 times | effect on adrenal enzyme (in words) [8]: very little effect | reversal of DHT-stimulated LNCaP growth (in words) [2]: dose-dependent reversal | reversal of DHT-stimulated LNCaP growth at 5 μM (in words) [2]: nearly complete reversal | reversal of testosterone-stimulated LNCaP growth (in words) [2]: dose-dependent reversal | reversal of testosterone-stimulated DNA synthesis (in words), 1 μM ([3]; inhibitor 1 μM): partially effective | total tumor volume (% of initial volume), 5 weeks [11]: 315.3% | mean tumor weight, 5-week experiment [11]: 255.9 ± 176.9 mg | inhibition at 0.1 µM [4]: 26.3%

C[C@]12CC[C@H]3[C@@H](CCC4=CC(=O)CC[C@@]43C)[C@@H]1CC[C@@H]2O [Testosterone, reference compound]
fold induction at 0.0001 µM ([2]; Homo sapiens, LNCaP, 216 h, read-out: stimulation of LNCaP growth by testosterone): 2 | fold induction at 1 µM ([3]; Homo sapiens, read-out: stimulation of DNA synthesis by testosterone): ~2
